Patent US5342840A, “Cyclopropane derivative” (Ajinomoto Co., Inc., priority 1991, dated 1994)
≈ marks a conversion by molar mass, not a printed value.

Assays:
HSV-1 (strain KOS) = experiment: Anti-herpes activity, plaque-reduction assay in Vero cells, HSV-1 (strain KOS); assay type: cell-based; settings: Human alphaherpesvirus 1, 168 h, 7 days at 37° C., read-out: ID50 HSV-1 (concentration of compound causing 50% inhibition of plaque formation)
Procedure: (§1) Anti-herpes activity was measured in a plaque-reduction assay (Lopez, C. et al., J. Antimicrob. Agents Chemother., 17, 803 (1980). Confluent monolayers of Vero cells in 6-well plates were infected with 100 plaque forming units of either HSV-1 (strain KOS) or HSV-2 (strain 186). The infected monolayers were incubated at 37° C. for 1 hour and then overlaid with maintenance medium containing 1% agarose and various concentrations of test compounds. The monolayers were incubated for a further 7 days at 37° C., after which the cells were fixed and stained, the plaques were counted, and the concentration of compound causing 50% inhibition of plaque formation was calculated.

HSV-2 (strain 186) = experiment: Anti-herpes activity, plaque-reduction assay in Vero cells, HSV-2 (strain 186); assay type: cell-based; settings: Human alphaherpesvirus 2, 168 h; HSV-2 strain 186, Vero cells, 7 days at 37° C.; read-out: ID50 HSV-2 (concentration of compound causing 50% inhibition of plaque formation)
Procedure: as §1

Row | SMILES | IC50 (HSV-1 (strain KOS)) [µg/mL] | IC50 (HSV-2 (strain 186)) [µg/mL]
1 | Nc1ccn(CC2(CO)CC2CO)c(=O)n1 (stereo not shown) | 120 (≈ 533 µM) | –
2 | Nc1nc2c(ncn2COCCO)c(=O)[nH]1 [Acyclovir, reference compound] | 0.57 (≈ 2.53 µM) | 0.4 (≈ 1.78 µM)
3 | Nc1nc(Cl)c2ncn(CC3(CO)CC3CO)c2n1 (stereo not shown) | 34 (≈ 120 µM) | –
4 | Nc1nc2c(ncn2C[C@]2(CO)C[C@H]2CO)c(=O)[nH]1 [Example 20, (-)-9-[1'S,2'R-bis(hydroxymethyl)cyclopropan-1'yl]methylguanine] | 0.023 (≈ 0.0867 µM) | 0.24 (≈ 0.905 µM)
5 | Nc1nc2c(ncn2C[C@]2(CO)C[C@H]2CO)c(=O)[nH]1 (relative stereo) | 0.046 (≈ 0.173 µM) | 0.42 (≈ 1.58 µM)
6 | Nc1nc2c(ncn2C[C@]2(CO)C[C@@H]2CO)c(=O)[nH]1 (relative stereo) | 10.4 (≈ 39.2 µM) | –
7 | Nc1ncnc2c1ncn2CC1(CO)CC1CO (stereo not shown) | 47 (≈ 189 µM) | –
